Reference: ChEMBL document CHEMBL4041467, “Synthesis of novel 15-membered 8a-azahomoerythromycin A acylides: Consequences of structural modification at the C-3 and C-6 position on antibacterial activity” (Eur J Med Chem, 2017)
Values after ≈ are worked out from the molar mass of the structure shown.

Tests used:
Haemophilus influenzae = experiment: Antibacterial activity against Haemophilus influenzae by agar microdilution method; type: functional
Staphylococcus aureus [1] = experiment: Antibacterial activity against inducibly macrolide/lincosamide/streptogramin B-resistant Staphylococcus aureus by agar microdilution method; type: functional
Streptococcus pneumoniae [2] = experiment: Antibacterial activity against erythromycin susceptible Streptococcus pneumoniae by agar microdilution method; type: functional
Staphylococcus aureus [3] = experiment: Antibacterial activity against constitutively macrolide/lincosamide/streptogramin B-resistant Staphylococcus aureus by agar microdilution method; type: functional
Streptococcus pneumoniae [4] = experiment: Antibacterial activity against constitutively macrolide/lincosamide/streptogramin B-resistant Streptococcus pneumoniae by agar microdilution method; type: functional
Streptococcus pyogenes [5] = experiment: Antibacterial activity against erythromycin susceptible Streptococcus pyogenes by agar microdilution method; type: functional
Staphylococcus aureus [6] = experiment: Antibacterial activity against erythromycin susceptible Staphylococcus aureus by agar microdilution method; type: functional
Streptococcus pyogenes [7] = experiment: Antibacterial activity against constitutively macrolide/lincosamide/streptogramin B-resistant Streptococcus pyogenes by agar microdilution method; type: functional
Streptococcus pneumoniae [8] = experiment: Antibacterial activity against Mef-mediated macrolide efflux resistant Streptococcus pneumoniae by agar microdilution method; type: functional
Streptococcus pyogenes [9] = experiment: Antibacterial activity against Mef-mediated macrolide efflux resistant Streptococcus pyogenes by agar microdilution method; type: functional
Plasma = experiment: Stability in rat plasma at 1 uM up to 120 mins by LC-MS/MS analysis; type: ADME, cell-free; details: 2 h
Staphylococcus aureus [10] = experiment: Antibacterial activity against erythromycin susceptible Staphylococcus aureus infected in mouse assessed as increase in mouse survival administered orally 1 hr post infection; type: functional; details: po
Staphylococcus aureus [11] = experiment: Potency index, ratio of clarithromycin ED50 to compound ED50 for erythromycin susceptible Staphylococcus aureus infected in mouse; type: functional
Streptococcus pneumoniae [12] = experiment: Antibacterial activity against erythromycin susceptible Streptococcus pneumoniae infected in mouse assessed as increase in mouse survival administered orally 1 hr post infection; type: functional; details: po
Streptococcus pneumoniae [13] = experiment: Potency index, ratio of clarithromycin ED50 to compound ED50 for erythromycin susceptible Streptococcus pneumoniae infected in mouse; type: functional
[14] = Protein binding in mouse plasma at 1 ug/ml by LC-MS/MS analysis; type: ADME, cell-free; details: read-out: PPB (converted)
[15] = Protein binding in rat plasma at 1 ug/ml by LC-MS/MS analysis; type: ADME, cell-free; details: read-out: PPB (converted)
[16] = Metabolic stability in human liver microsomes assessed as parent compound remaining at 1 uM after 60 mins in presence of NADP by LC-MS/MS analysis; type: ADME, microsome; details: read-out: Stability
[17] = Metabolic stability in mouse liver microsomes assessed as parent compound remaining at 1 uM after 60 mins in presence of NADP by LC-MS/MS analysis; type: ADME, microsome; details: read-out: Stability
[18] = Metabolic stability in rat liver microsomes assessed as parent compound remaining at 1 uM after 60 mins in presence of NADP by LC-MS/MS analysis; type: ADME, microsome; details: read-out: Stability
[19] = Protein binding in human plasma at 1 ug/ml by LC-MS/MS analysis; type: ADME, cell-free; details: read-out: PPB (converted)
Staphylococcus aureus [20] = experiment: Ratio of MIC for inducibly macrolide/lincosamide/streptogramin B-resistant Staphylococcus aureus to MIC for erythromycin susceptible Staphylococcus aureus; type: functional
[21] = Volume of distribution at steady state in Han Wistar rat at 10 mg/kg, iv by LC-MS/MS analysis; type: ADME, organism-based; details: in vivo, read-out: Vdss
[22] = AUC(0 to infinity) in Han Wistar rat at 10 mg/kg, iv by LC-MS/MS analysis; type: ADME, organism-based; parameters: dose 10 mg/kg, route intravenous, time infinity; details: in vivo
[23] = Tmax in Han Wistar rat at 20 mg/kg, po by LC-MS/MS analysis; type: ADME, organism-based; details: in vivo
[24] = Cmax in Han Wistar rat at 20 mg/kg, po by LC-MS/MS analysis; type: ADME, organism-based; parameters: dose 20 mg/kg, route oral; details: in vivo
Rattus norvegicus = experiment: Unbound clearance in Han Wistar rat at 10 mg/kg, iv by LC-MS/MS analysis; type: ADME, organism-based; details: in vivo
[25] = Terminal half life in Han Wistar rat at 10 mg/kg, iv by LC-MS/MS analysis; type: ADME, organism-based; details: in vivo, read-out: beta t1/2 (converted)
[26] = Fraction unbound in Han Wistar rat plasma at 10 mg/kg, iv by LC-MS/MS analysis; type: ADME, organism-based
[27] = Oral bioavailability in Han Wistar rat at 20 mg/kg by LC-MS/MS analysis; type: ADME, organism-based; details: in vivo
[28] = Cmax in Han Wistar rat at 10 mg/kg, iv by LC-MS/MS analysis; type: ADME, organism-based; parameters: dose 10 mg/kg, route intravenous; details: in vivo
[29] = AUC(0 to infinity) in Han Wistar rat at 20 mg/kg, po by LC-MS/MS analysis; type: ADME, organism-based; parameters: dose 20 mg/kg, time infinity, route oral; details: in vivo
[30] = Clearance in Han Wistar rat at 10 mg/kg, iv by LC-MS/MS analysis; type: ADME, organism-based; details: in vivo

| SMILES | MIC (Haemophilus influenzae) [µg/mL] | MIC (Staphylococcus aureus [1]) [µg/mL] | MIC (Streptococcus pneumoniae [2]) [µg/mL] | MIC (Staphylococcus aureus [3]) [µg/mL] | MIC (Streptococcus pneumoniae [4]) [µg/mL] | MIC (Streptococcus pyogenes [5]) [µg/mL] | MIC (Staphylococcus aureus [6]) [µg/mL] | MIC (Streptococcus pyogenes [7]) [µg/mL] | MIC (Streptococcus pneumoniae [8]) [µg/mL] | MIC (Streptococcus pyogenes [9]) [µg/mL] | further results |
| --- | --- | --- | --- | --- | --- | --- | --- | --- | --- | --- | --- |
| COC(=O)c1cn(C2CC2)c2cc(N3CCNCC3)c(F)cc2c1=O | 16 (≈ 46.3 µM) | > 64 | > 64 | > 64 | > 64 | > 64 | > 64 | > 64 | > 64 | > 64 |  |
| O=C(O)c1cn(C2CC2)c2cc(Cl)c(N3CCNCC3)cc2c1=O | > 64 | > 64 | > 64 | > 64 | > 64 | > 64 | > 64 | > 64 | > 64 | > 64 |  |
| C=CCO[C@]1(C)C[C@@H](C)NC(=O)[C@H](C)[C@@H](O)[C@](C)(O)[C@@H](CC)OC(=O)[C@H](C)[C@@H](OC(=O)CCN2CCN(c3ccc4c(c3)c(=O)c(C(=O)O)cn4C3CC3)CC2)[C@H](C)[C@H]1O[C@@H]1O[C@H](C)C[C@H](N(C)C)[C@H]1O | 16 (≈ 16 µM) | 8 (≈ 8.01 µM) | 2 (≈ 2 µM) | > 64 | 16 (≈ 16 µM) | 4 (≈ 4.01 µM) | 4 (≈ 4.01 µM) | 32 (≈ 32.1 µM) | 4 (≈ 4.01 µM) | 16 (≈ 16 µM) |  |
| CC[C@H]1OC(=O)[C@H](C)[C@@H](OC(=O)CCNCCNc2cc3c(=O)c(C(=O)O)cn(C4CC4)c3cc2Cl)[C@H](C)[C@@H](O[C@@H]2O[C@H](C)C[C@H](N(C)C)[C@H]2O)[C@](C)(OC/C=C/c2cnc3ccccc3n2)C[C@@H](C)NC(=O)[C@H](C)[C@@H](O)[C@]1(C)O | 4 (≈ 3.52 µM) | 1 (≈ 0.881 µM) | ≤ 0.125 | > 64 | 1 (≈ 0.881 µM) | ≤ 0.125 | 0.5 (≈ 0.441 µM) | 16 (≈ 14.1 µM) | 0.5 (≈ 0.441 µM) | 1 (≈ 0.881 µM) |  |
| C=CCO[C@]1(C)C[C@@H](C)NC(=O)[C@H](C)[C@@H](O)[C@](C)(O)[C@@H](CC)OC(=O)[C@H](C)[C@@H](OC(=O)CCN2CCN(c3cc4c(cc3F)c(=O)c(C(=O)O)cn4C3CC3)CC2)[C@H](C)[C@H]1O[C@@H]1O[C@H](C)C[C@H](N(C)C)[C@H]1O | 4 (≈ 3.94 µM) | 1 (≈ 0.984 µM) | 0.5 (≈ 0.492 µM) | > 64 | 4 (≈ 3.94 µM) | 0.5 (≈ 0.492 µM) | 0.5 (≈ 0.492 µM) | 8 (≈ 7.87 µM) | 1 (≈ 0.984 µM) | 0.5 (≈ 0.492 µM) | Stability (Plasma): Stable |
| CC[C@H]1OC(=O)[C@H](C)[C@@H](OC(=O)CCNCCNc2cc3c(=O)c(C(=O)O)cn(C4CC4)c3cc2Cl)[C@H](C)[C@@H](O[C@@H]2O[C@H](C)C[C@H](N(C)C)[C@H]2O)[C@](C)(OC/C=C/c2cccc3ncccc23)C[C@@H](C)NC(=O)[C@H](C)[C@@H](O)[C@]1(C)O | 8 (≈ 7.06 µM) | 2 (≈ 1.76 µM) | 0.5 (≈ 0.441 µM) | > 64 | 8 (≈ 7.06 µM) | 1 (≈ 0.882 µM) | 1 (≈ 0.882 µM) | 32 (≈ 28.2 µM) | 4 (≈ 3.53 µM) | 4 (≈ 3.53 µM) |  |
| C=CCO[C@]1(C)C[C@@H](C)NC(=O)[C@H](C)[C@@H](O)[C@](C)(O)[C@@H](CC)OC(=O)[C@H](C)[C@@H](OC(=O)CCN2CCN(c3cc4c(cc3F)c(=O)c(C(=O)OC)cn4C3CC3)CC2)[C@H](C)[C@H]1O[C@@H]1O[C@H](C)C[C@H](N(C)C)[C@H]1O | 8 (≈ 7.77 µM) | 4 (≈ 3.88 µM) | 2 (≈ 1.94 µM) | > 64 | 8 (≈ 7.77 µM) | 2 (≈ 1.94 µM) | 2 (≈ 1.94 µM) | 32 (≈ 31.1 µM) | 4 (≈ 3.88 µM) | 8 (≈ 7.77 µM) |  |
| CC[C@H]1OC(=O)[C@H](C)[C@@H](OC(=O)CCNCCNc2cc3c(=O)c(C(=O)O)cn(C4CC4)c3cc2Cl)[C@H](C)[C@@H](O[C@@H]2O[C@H](C)C[C@H](N(C)C)[C@H]2O)[C@](C)(OC/C=C/c2ccc3ncccc3c2)C[C@@H](C)NC(=O)[C@H](C)[C@@H](O)[C@]1(C)O | 4 (≈ 3.53 µM) | 0.25 (≈ 0.221 µM) | ≤ 0.125 | > 64 |  | ≤ 0.125 | 0.25 (≈ 0.221 µM) | 4 (≈ 3.53 µM) | 0.25 (≈ 0.221 µM) | 0.25 (≈ 0.221 µM) | ED50 (Staphylococcus aureus [10]): 12.8 mg/kg; Ratio ED50 (Staphylococcus aureus [11]): 2; ED50 (Streptococcus pneumoniae [12]): 15.1 mg/kg; Ratio ED50 (Streptococcus pneumoniae [13]): 2 |
| CC[C@H]1OC(=O)[C@H](C)[C@@H](OC(=O)CCNCCNc2cc3c(=O)c(C(=O)O)cn(C4CC4)c3cc2Cl)[C@H](C)[C@@H](O[C@@H]2O[C@H](C)C[C@H](N(C)C)[C@H]2O)[C@](C)(OC/C=C/c2ccnc3ccccc23)C[C@@H](C)NC(=O)[C@H](C)[C@@H](O)[C@]1(C)O | 16 (≈ 14.1 µM) | 0.5 (≈ 0.441 µM) | 0.25 (≈ 0.221 µM) | > 64 | 4 (≈ 3.53 µM) | 0.5 (≈ 0.441 µM) | 0.5 (≈ 0.441 µM) | 32 (≈ 28.2 µM) | 1 (≈ 0.882 µM) | 4 (≈ 3.53 µM) |  |
| CC[C@H]1OC(=O)[C@H](C)[C@@H](O[C@H]2C[C@@](C)(OC)[C@@H](O)[C@H](C)O2)[C@H](C)[C@@H](O[C@@H]2O[C@H](C)C[C@H](N(C)C)[C@H]2O)[C@](C)(O)C[C@@H](C)CN(C)[C@H](C)[C@@H](O)[C@]1(C)O [AZITHROMYCIN] | 1 (≈ 1.34 µM) | > 64 | ≤ 0.125 | > 64 | > 64 | ≤ 0.125 | 1 (≈ 1.34 µM) | > 64 | 4 (≈ 5.34 µM) | 1 (≈ 1.34 µM) | fraction unbound at 1 ug/ml [14]: 0.73; fraction unbound at 1 ug/ml [15]: 0.72; remaining at 1 h, 1 µM [16]: 100%; remaining at 1 h, 1 µM [17]: 100%; remaining at 1 h, 1 µM [18]: 100%; fraction unbound at 1 ug/ml [19]: 0.64; Ratio (Staphylococcus aureus [20]): 64 |
| CCOc1ccc2ccc(=O)oc2c1 [ETHOXYCOUMARIN] |  |  |  |  |  |  |  |  |  |  | remaining at 1 h, 1 µM [16]: 18%; remaining at 1 h, 1 µM [17]: 30%; remaining at 1 h, 1 µM [18]: 57% |
| CC[C@H]1OC(=O)[C@H](C)C(=O)[C@H](C)[C@@H](O[C@@H]2O[C@H](C)C[C@H](N(C)C)[C@H]2O)[C@](C)(OC)C[C@@H](C)C(=O)[C@H](C)[C@H]2N(CCCCn3cnc(-c4cccnc4)c3)C(=O)O[C@]12C [TELITHROMYCIN] | 2 (≈ 2.46 µM) | 0.25 (≈ 0.308 µM) | ≤ 0.06 | > 64 | ≤ 0.125 | ≤ 0.06 | ≤ 0.125 | 4 (≈ 4.93 µM) | ≤ 0.125 | 0.25 (≈ 0.308 µM) | Vd [21]: 5.6 L/kg; ED50 (Staphylococcus aureus [10]): 5 mg/kg; fraction unbound at 1 ug/ml [14]: 0.41; AUC(0-inf) [22]: 3950 ng·h/mL; Tmax [23]: 2.3 h; fraction unbound at 1 ug/ml [15]: 0.56; Cmax [24]: 340 ng/mL; CL free (Rattus norvegicus): 75.9 mL/min/kg; half-life [25]: 1.7 h; ED50 (Streptococcus pneumoniae [12]): 7.2 mg/kg; fraction unbound [26]: 0.56; bioavailability [27]: 33%; fraction unbound at 1 ug/ml [19]: 0.5; Cmax [28]: 1850 ng/mL; AUC(0-inf) [29]: 2730 ng·h/mL; clearance [30]: 42.5 mL/min/kg |
